Assay results reported in the supplement of paper PMC10307832.

Key:
Test in all cases: relative viability (nuclei count vs DMSO), 5 days (fraction); higher = more cells survive
[1] = compound: O=C(CCCCCCNC(=O)c1cnc(N(c2ccccc2)c2ccccc2)nc1)NO [Ricolinostat] + C[C@]1(O)C[C@@H](c2nc(-c3ccc4ccc(-c5ccccc5)nc4c3)c3c(N)nccn32)C1 [Linsitinib] (partner 1 µM)
In short: (§1)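 Each reported value is a median over duplicate plates. It expresses relative viability: treated-well nuclei count divided by vehicle-well nuclei count. Lung cancer cell lines in 1536-well plates were dosed by pin tool a day after seeding, alone with one drug or with a fixed anchor-drug dose plus five library-drug doses (not always all listed) in √10 steps, and nuclei were counted after 5 days.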

[2] = compound: O=C(CCCCCCNC(=O)c1cnc(N(c2ccccc2)c2ccccc2)nc1)NO [Ricolinostat] + CC1(C)CCC(c2ccc(Cl)cc2)=C(CN2CCN(c3ccc(C(=O)NS(=O)(=O)c4ccc(N[C@H](CCN5CCOCC5)CSc5ccccc5)c(S(=O)(=O)C(F)(F)F)c4)cc3)CC2)C1 [Navitoclax] (partner 0.5 µM)
In short: as §1

[3] = compound: C1=CC=C(C(=C1)C2=CC=C(C=C2)C3=CSC4=C3C(=C(C(=O)N4)C#N)O)O + CS(=O)(=O)N1CCN(Cc2cc3nc(-c4cccc5[nH]ncc45)nc(N4CCOCC4)c3s2)CC1 [Pictilisib] (partner 1 µM)
In short: as §1

TGX 221 + Lapatinib = compound: CC1=CN2C(=O)C=C(N=C2C(=C1)C(C)NC3=CC=CC=C3)N4CCOCC4 [TGX 221] + CS(=O)(=O)CCNCc1ccc(-c2ccc3ncnc(Nc4ccc(OCc5cccc(F)c5)c(Cl)c4)c3c2)o1 [Lapatinib] (partner 2 µM)
In short: as §1

Row | Cell Line | relative viability ([1]; first compound 0.08 µM) | relative viability ([1]; first compound 0.253 µM) | relative viability ([1]; first compound 0.8 µM) | relative viability ([1]; first compound 2.53 µM) | relative viability ([2]; first compound 0.08 µM) | relative viability ([2]; first compound 0.253 µM) | relative viability ([2]; first compound 0.8 µM) | relative viability ([2]; first compound 2.53 µM) | relative viability ([3]; first compound 0.08 µM) | relative viability ([3]; first compound 0.253 µM) | relative viability ([3]; first compound 0.8 µM) | relative viability ([3]; first compound 2.53 µM) | relative viability ([3]; first compound 8 µM) | relative viability (TGX 221 + Lapatinib; first compound 0.08 µM) | relative viability (TGX 221 + Lapatinib; first compound 0.253 µM) | relative viability (TGX 221 + Lapatinib; first compound 0.8 µM) | relative viability (TGX 221 + Lapatinib; first compound 2.53 µM) | relative viability (TGX 221 + Lapatinib; first compound 8 µM)
1 | NCI-H460 | 0.468 | 0.774 | 0.731 | 0.58 | 1.12 | 0.93 | 1.08 | 1.21 | 0.339 | 0.325 | 0.367 | 0.319 | 0.333 | 0.709 | 0.795 | 0.983 | 0.969 | 0.966
2 | NCI-H520 | – | 0.991 | 1.02 | 0.869 | – | 1.11 | 1.01 | 1.02 | 0.185 | 0.277 | 0.323 | 0.319 | 0.295 | 0.724 | 0.562 | 0.824 | 0.671 | 0.516
3 | NCI-H596 | 1.09 | 1.05 | 1 | 1.09 | 0.951 | 0.954 | 0.858 | 0.887 | 0.178 | 0.407 | 0.395 | 0.373 | 0.378 | 1.13 | 1.09 | 1.03 | 0.993 | 0.958
4 | NCI-H647 | 1.13 | 1.23 | 1.16 | 0.698 | 0.806 | 1.12 | 1.09 | 1.09 | 0.226 | 0.449 | 0.515 | 0.377 | 0.389 | 0.95 | 0.869 | 0.955 | 0.746 | 0.61
5 | NCI-H727 | 0.212 | 0.269 | 0.333 | 0.354 | 0.356 | 0.55 | 0.397 | 0.405 | 0.376 | 0.407 | 0.427 | 0.353 | 0.308 | 0.751 | 0.731 | 0.794 | 0.832 | 0.919
6 | NCI-H838 | 0.944 | 1.01 | 1.1 | 0.9 | 0.97 | 1.13 | 1.19 | 0.967 | 0.329 | 0.49 | 0.367 | 0.367 | 0.403 | 1.06 | 0.876 | 0.886 | 0.822 | 0.718
7 | NCI-H1299 | 0.984 | 0.898 | 0.959 | 0.74 | 0.987 | 0.987 | 1.02 | 1.01 | 1.04 | 0.858 | 0.826 | 0.771 | 0.594 | 0.987 | 0.99 | 0.978 | 1.03 | 0.894
8 | NCI-H1355 | – | 0.79 | 0.735 | 0.716 | – | 0.916 | 0.887 | 0.747 | 0.478 | 0.541 | 0.416 | 0.325 | 0.447 | 1.07 | 0.964 | 0.859 | 0.95 | 0.852
9 | NCI-H1395 | – | 1.2 | 1.05 | 1.04 | – | 1.13 | 1.32 | 1.27 | – | 0.533 | 0.631 | 0.545 | 0.643 | 0.926 | 0.862 | 0.751 | 0.804 | 0.714
10 | NCI-H1437 | 0.805 | 1.03 | 0.98 | 0.647 | 1 | 1.07 | 1.02 | 0.831 | 0.42 | 0.475 | 0.39 | 0.459 | 0.494 | 0.904 | 0.722 | 0.773 | 0.72 | 0.711
11 | NCI-H1651 | 0.72 | 0.871 | 0.93 | 0.816 | 0.913 | 0.993 | 1.02 | 0.854 | 0.361 | 0.61 | 0.636 | 0.565 | 0.568 | 0.777 | 0.644 | 0.758 | 0.804 | 0.599
12 | NCI-H1666 | 0.799 | 0.806 | 0.745 | 0.468 | 0.909 | 1.12 | 0.816 | 0.471 | 0.321 | 0.572 | 0.404 | 0.29 | 0.405 | 0.648 | 0.654 | 0.695 | 0.618 | 0.683
13 | NCI-H1703 | – | 0.669 | 0.774 | 0.956 | – | 0.978 | 1.05 | 1.54 | 0.236 | 0.292 | 0.25 | 0.259 | 0.24 | 1.02 | 0.974 | 0.95 | 0.859 | 0.757
14 | NCI-H1734 | 0.737 | 0.843 | 0.961 | 1 | 0.645 | 0.826 | 0.924 | 0.78 | 0.46 | 0.485 | 0.444 | 0.477 | 0.493 | 0.907 | 1.05 | 1.1 | 1.06 | 0.927
15 | NCI-H1755 | 0.901 | – | 0.994 | 0.966 | 0.864 | – | 0.981 | 0.912 | 0.279 | 0.59 | 0.381 | 0.396 | 0.383 | 1.06 | 1.02 | 1.01 | 0.974 | 0.943
16 | NCI-H1793 | – | 0.802 | 0.743 | 0.81 | – | 0.547 | 0.499 | 0.853 | 0.379 | 0.352 | 0.269 | 0.312 | 0.242 | 0.633 | 0.624 | 0.721 | 0.58 | 0.456
17 | NCI-H1915 | 1.01 | 1.04 | 1.02 | 1.01 | 0.797 | 0.746 | 0.778 | 0.712 | 0.926 | 1.05 | 0.784 | 0.927 | 0.884 | 0.88 | 0.978 | 0.999 | 0.963 | 0.985
18 | NCI-H1944 | 0.976 | 1.11 | 1.1 | 0.895 | 0.993 | 0.972 | 1.04 | 0.901 | 0.349 | 0.39 | 0.317 | 0.343 | 0.357 | 0.705 | 0.784 | 0.777 | 0.836 | 0.714
